“Also recorded” adds a separate entry of the source.
Legend:
[1] = system: human striated muscle cells innervated with explants of spinal cord and of spinal ganglia from rat embryos; format: cell-based
wrinkles = settings: in vivo; cited from earlier work

CCCCCC(=O)CCN(CC)CCCc1ccccc1 [Compound (4)]
contractions of three muscle fibres ([1]; 100 μM, incubated for 60 seconds, contractions counted over 30 seconds): blocks the contractions

CN1C(=O)CN=C(c2ccccc2)c2cc(Cl)ccc21 [diazepam, reference compound]
muscle fibre contractions [1]: inhibited muscle fibre contractions | anti-wrinkle activity (wrinkles): demonstrated in vivo

botulinum toxin
blocking effect on contractions [1]: blocking effect which is much weaker; also recorded: complete | blocking of the contractions [1]: completely blocks the contractions | frequency of the contractions [1]: greatly decreases the frequency of the contractions
